In US9056923B2, “Mimetic peptides derived from collagen type IV and their use for treating angiogenesis- and lymphagiogenesis-dependent diseases” (THE JOHNS HOPKINS UNIVERSITY, priority 2010, dated 2015):
Ends that are not written are not given here.

Assays:
[1] = tested on: MDA-MB-231-luc-D3H2LN cells; experiment: Tail vein assay of cancer metastasis (lung metastasis); format: in vivo; details: luciferase-transfected MDA-MB-231 cells in nude mice, IVIS
Experimental: The tail vein assay of cancer metastasis protocol from Current Protocols of Cell Biology was used to measure the effect of SP2024 on lung metastasis (Elkin and Vlodaysky, 2001). […] of 5×10^5 cells/mL luciferase-transfected MDA-MB-231-luc-D3H2LN (Caliper Biosciences) cell suspension was slowly injected into nude mice (nude mice are easier to image because of their lack of fur). Two hours before cell inoculation vehicle or 10 mg/kg SP2024 were administered subcutaneously on a daily basis. Bioluminescence to detect metastasis was measured by IVIS imaging (Caliper Biosciences) via IP injection of 150 mg/kg D-luciferin.

[2] = tested on: VEGF mediated retinal neovascularization; experiment: Rho/VEGF transgenic mice model of retinal neovascularization; format: in vivo; details: 0.01, 0.1, or 1 μg into the mouse eye
Experimental: The ocular Rho/VEGF transgenic mice model of wet age-related macular degeneration also was used to test some of the peptides. Transgenic mice in which the rhodopsin promoter drives expression of VEGF in photoreceptors have the onset of VEGF production at P7 and develop extensive NV along the outer surface of the retina by P21 (Okamoto et al., 1997; To be et al., 1998). Mice hemizygous for the transgene (n=15 for each dose) were given an intraocular injection of 1 μl of PBS containing 0.01, 0.1, or 1 μg of peptide or scramble peptide in one eye at P7 and P14 and at P21 the mice were anesthetized, perfused with fluorescein-labeled dextran, and the total area of neovascularization on the outer surface of the retina was measured on retinal flat mounts by image analysis as above.

[3] = tested on: lymphatic endothelial cells (LEC); experiment: LEC adhesion assay; format: cell-based
Experimental: Similar to the migration assays, the inhibition activity of the peptide in cellular adhesion was assessed using the RT-CIM technology. In this case, 25,000 cells/well were plated in 16 wells E-plates (Roche, Basel Switzerland) in the presence or absence of the peptide. The adhesion was monitored over time (3 hours) by measuring changes in the electrical impedance, which is a direct measure of the cells adhering on the electrodes. […] Assays were performed in at least two independent replicates and each replicate was performed using two experimental duplicates.

MDA-MB-231 tumors = experiment: MRI of tumor vascular volume and permeability surface-area product; format: in vivo, mice; details: vs control
Experimental: MRI of vascular volume and permeability surface-area product (PSP) were determined as follows. Mice with volume-matched tumors were treated with SP2024 or vehicle and imaged 24 h post treatment. The mice were anesthetized and the tail vein was catheterized before placing the animal in the spectrometer. All imaging studies were performed on a 4.7 T Bruker Avance spectrometer, as previously described (Raman et al., 2006; Bhujwalla et al., 2001) using a home-built solenoid coil placed around the tumor. Briefly, multislice relaxation rate (1/T1) maps were obtained by a saturation recovery method combined with fast T1 SNAPSHOT-FLASH imaging (flip angle of 10°, echo time of 2 ms). […] The detectable areas of vascular volume and permeability as well as absolute values of vascular volume and permeability were analyzed. […] Volume fractions of the regions were determined using the histogram analysis of the volume data. […] Statistical significance (p<0.05) within each experiment using the independent replicates was assessed using standard statistical assessments such as Student's t-test and ANOVA accompanied by Dunnett's test if different sets of data were compared to one group.

HUVEC [4] = experiment: HUVEC migration assay (RT-CIM); format: cell-based, human
Procedure, shortened: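 Real-time impedance (RT-CIM) transwell migration through fibronectin-coated (20 μg/mL) 8 μm membranes; 45,000 cells/well in serum-free medium ± peptides, fully supplemented EBM-2 as chemoattractant below. Cell index recorded over 20 h at 37 °C; ≥2 independent replicates, each in duplicate.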

HUVEC [5] = experiment: HUVEC tube formation assay on Matrigel; format: cell-based, human
Procedure, shortened: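 HUVEC (15,000/well) plated on polymerized Matrigel in complete media with or without peptide for 19 h at 37 °C. Tube networks imaged by microscopy, one random field per well, in triplicate wells across at least two independent experiments.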

HUVEC [6] = format: cell-based, human
Procedure, shortened: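 Adhesion of 25,000 cells per well, with or without peptide, followed by real-time electrical impedance on electrode plates over 3 hours. At least two independent replicates, each run in duplicate.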

LRRFSTMPFMFININNVINF-NH2 [SP2024]
lung metastasis [1]: inhibits lung metastasis | area of retinal neovascularization [2]: generally decreased | inhibition of adhesion of LEC [3]: strong | relative vascular volume (MDA-MB-231 tumors): reduced relative vascular volume | tumor permeability-surface area product (MDA-MB-231 tumors): reduced tumor permeability-surface area product | Migration Inhibition (5 uM) (HUVEC [4]; 5 uM peptide): 37.73% | Activity in Migration (HUVEC [4]; Yes/No summary, active = inhibitory potential greater than 30%): Yes | Tube formation Inhibition (100 uM) (HUVEC [5]; 100 uM peptide): Complete | Activity in Tube formation (HUVEC [5]; Yes/No summary): Yes | IC50 (HUVEC [6]; 3 h): 2350 ± 1300 nM | Adhesion Inhibition (100 uM) (HUVEC [6]; HUVEC, 100 uM peptide): 94.45% | Activity in Adhesion (HUVEC [6]; HUVEC, Yes/No summary, active = inhibitory potential greater than 30%): Yes
